Experimental findings from patent US20220235011A1, “PHTHALAZINONE COMPOUNDS AND USE THEREOF” (ST PHARM CO., LTD., priority 2019, published 2022) are described below.

For this assay, the target named is T1, Sirt6 (Homo sapiens, UniProt Q8N6T7).
T1 construct: purchased CycLex CY-1156V2
Kind of assay: Measurement of Sirt6 Activity (CycLex Sirt6 Deacetylase Fluorometric Assay Kit). The class given is biochemical. The note with it: compound at 10 μM, fluorescence relative to the group without compound treatment (positive control group). The method in brief: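 Recombinant Sirt6 with fluoro-labelled acetyl-lysine peptide, NAD and lysylendopeptidase developer, compound added from 10× stock in PBS; 1 h at room temperature. Fluorescence read at ex 490/em 530 nm; activation expressed as fluorescence ratio relative to enzyme without compound.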

T1 sequence (Q8N6T7 whole entry): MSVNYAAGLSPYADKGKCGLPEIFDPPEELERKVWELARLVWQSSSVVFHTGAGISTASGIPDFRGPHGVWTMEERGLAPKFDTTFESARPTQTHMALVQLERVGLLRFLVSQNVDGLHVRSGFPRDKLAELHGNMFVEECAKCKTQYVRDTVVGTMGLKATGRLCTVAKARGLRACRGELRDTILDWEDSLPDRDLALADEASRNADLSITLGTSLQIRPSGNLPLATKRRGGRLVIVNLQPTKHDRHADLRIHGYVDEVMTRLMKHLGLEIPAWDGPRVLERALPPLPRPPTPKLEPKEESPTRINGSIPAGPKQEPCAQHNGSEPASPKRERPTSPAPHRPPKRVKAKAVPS

Turning to `CCS(=O)(=O)Nc1cccc(-c2nn(-c3ccc(F)cc3)c(=O)c3cccc(C)c23)c1` [Example 150, N-(3-(3-(4-Fluorophenyl)-8-methyl-4-oxo-3,4-dihydrophthalazin-1-yl)phenyl)ethanesulfonamide], the “Sirt6 Activity (% activity, 10 μM)” value was 104.7 % activity. Still for that read-out and setting: in the case of `CCS(=O)(=O)N(C)c1cccc(-c2nn(-c3ccc(C(F)(F)F)cc3)c(=O)c3ccccc23)c1` [Example 5, N-Methyl-N-(3-(4-oxo-3-(4-(trifluoromethyl)phenyl)-3,4-dihydrophthalazin-1-yl)phenyl)ethanesulfonamide] it was 105 % activity; in that of `CC(C)(C(=O)O)c1cccc(-c2nn(-c3ccc(Cl)cc3)c(=O)c3ccccc23)c1` [Example 194, 2-(3-(3-(4-Chlorophenyl)-4-oxo-3,4-dihydrophthalazin-1-yl)phenyl)-2-methylpropanoic Acid], 350.20 % activity; in that of `Cl.N[C@H]1CCCCN(c2nn(-c3ccc(F)cc3)c(=O)c3ccccc23)C1` [Example 158, (S)-4-(3-Aminoazepan-1-yl)-2-(4-fluorophenyl)phthalazin-1(2H)-one-hydrochloride], 164.7 % activity. Consider `CC(C)(C(=O)O)C1CCCN(c2nn(-c3ccc(F)cc3F)c(=O)c3ccccc23)C1` (centres unmarked) [Example 210-1, 2-(1-(3-(2,4-Difluorophenyl)-4-oxo-3,4-dihydrophthalazin-1-yl)piperidin-3-yl)-2-methylpropanoic Acid], for which the “Sirt6 Activity (% activity, 10 μM)” value (10 µM) is reported as 199.00 % activity. `CC(C)(C(=O)NC1CCCCC1)c1cccc(-c2nn(-c3ccc(F)cc3F)c(=O)c3ccccc23)c1` [Example 180, N-Cyclohexyl-2-(3-(3-(2,4-difluorophenyl)-4-oxo-3,4-dihydrophthalazin-1-yl)phenyl)-2-methylpropanamide]: the “Sirt6 Activity (% activity, 10 μM)” value was 133.30 % activity.

In the case of `CCS(=O)(=O)NC1CCCCN(c2nn(C3CCCCC3)c(=O)c3ccccc23)C1` (centres unmarked) [Example 144, N-(1-(3-Cyclohexyl-4-oxo-3,4-dihydrophthalazin-1-yl)azepan-3-yl)ethanesulfonamide], the “Sirt6 Activity (% activity, 10 μM)” value was found to be 164.1 % activity. The same measure, in the same setting: to `CC(C)(C(=O)O)C1CCCN(c2nn(-c3ccc(Cl)cc3)c(=O)c3ccccc23)C1` (centres unmarked) [Example 209, 2-(1-(3-(4-Chlorophenyl)-4-oxo-3,4-dihydrophthalazin-1-yl)piperidin-3-yl)-2-methylpropanoic Acid] belongs 169.10 % activity.

On to `CC(C)S(=O)(=O)Nc1cccc(-c2nn(-c3ccc(F)cc3)c(=O)c3ccccc23)c1` [Example 67, N-(3-(3-(4-Fluorophenyl)-4-oxo-3,4-dihydrophthalazin-1-yl)phenyl)propan-2-sulfonamide], for which the “Sirt6 Activity (% activity, 10 μM)” value was 166 % activity.

On to `Cl.N[C@H]1CCCCN(c2nn(-c3ccc(F)cc3F)c(=O)c3ccccc23)C1` [Example 157, (S)-4-(3-Aminoazepan-1-yl)-2-(2,4-difluorophenyl)phthalazin-1(2H)-one-hydrochloride], for which the “Sirt6 Activity (% activity, 10 μM)” value is listed as 244.1 % activity. The same measure, in the same setting: in the case of `CC(C)(C(N)=O)c1cccc(-c2nn(C3CCCCC3)c(=O)c3ccccc23)c1` [Example 163, 2-(3-(3-Cyclohexyl-4-oxo-3,4-dihydrophthalazin-1-yl)phenyl)-2-methylpropanamide] it was 277 % activity; in that of `CCS(=O)(=O)Nc1cccc(-c2nn(CCc3ccccc3)c(=O)c3ccccc23)c1` [Example 62, N-(3-(4-Oxo-3-phenethyl-3,4-dihydrophthalazin-1-yl)phenyl)ethanesulfonamide], 111 % activity. For `CCS(=O)(=O)N[C@@H]1CCCN(c2nn(-c3ccc(F)cc3)c(=O)c3ccccc23)C1` [Example 139, (R)—N-(1-(3-(4-Fluorophenyl)-4-oxo-3,4-dihydrophthalazin-1-yl)piperidin-3-yl)ethanesulfonamide], the “Sirt6 Activity (% activity, 10 μM)” value came to 130.07 % activity. Same read-out and setting: in the case of `CNC(=O)C(C)(C)c1cccc(-c2nn(-c3ccc(F)cc3)c(=O)c3ccccc23)c1` [Example 153, 2-(3-(3-(4-Fluorophenyl)-4-oxo-3,4-dihydrophthalazin-1-yl)phenyl)-N,2-dimethylpropanamide] it was 280.4 % activity; in that of `Cn1cc(NC(=O)C(C)(C)c2cccc(-c3nn(-c4ccc(F)cc4F)c(=O)c4ccccc34)c2)cn1` [Example 182, 2-(3-(3-(2,4-Difluorophenyl)-4-oxo-3,4-dihydrophthalazin-1-yl)phenyl)-2-methyl-N-(1-methyl-1H-pyrazol-4-yl)propanamide], 219.60 % activity; in that of `CS(=O)(=O)Nc1cccc(-c2nn(-c3ccccc3)c(=O)c3ccccc23)c1` [Example 6, N-(3-(4-Oxo-3-phenyl-3,4-dihydrophthalazin-1-yl)phenyl)methanesulfonamide], 102 % activity. Take `CC(C)(C(=O)N1CCOCC1)c1cccc(-c2nn(-c3ccc(F)cc3F)c(=O)c3ccccc23)c1` [Example 179, 2-(2,4-Difluorophenyl)-4-(3-(2-methyl-1-morpholino-1-oxopropan-2-yl)phenyl)phthalazin-1(2H)-one]: the “Sirt6 Activity (% activity, 10 μM)” value was 221.60 % activity.

In the case of `CC(=O)N[C@@H]1CCCCN(c2nn(-c3ccc(F)cc3F)c(=O)c3ccccc23)C1` [Example 192, (R)—N-(1-(3-(2,4-Difluorophenyl)-4-oxo-3,4-dihydrophthalazin-1-yl)azepan-3-yl)acetamide], the “Sirt6 Activity (% activity, 10 μM)” value is 286.60 % activity. As for `CC(C)(C(=O)O)C1CN(c2nn(-c3ccc(F)cc3F)c(=O)c3ccccc23)CCO1` (centres unmarked) [Example 221, 2-(4-(3-(2,4-Difluorophenyl)-4-oxo-3,4-dihydrophthalazin-1-yl)morpholin-2-yl)-2-methylpropanoic Acid], the “Sirt6 Activity (% activity, 10 μM)” value is listed as 125.50 % activity.

Consider `CC(C)(C)/[N+]([O-])=C/c1cccc(-c2nn(-c3cccc(F)c3)c(=O)c3ccccc23)c1` [Example 29, (Z)—N-tert-Butyl-1-(3-(3-(3-fluorophenyl)-4-oxo-3,4-dihydrophthalazin-1-yl)phenyl)methanimine Oxide], for which the “Sirt6 Activity (% activity, 10 μM)” value stood at 162 % activity.

With `CC(C)(C(=O)O)c1cccc(-c2nn(-c3ccccc3F)c(=O)c3ccccc23)c1` [Example 171, 2-(3-(3-(2-Fluorophenyl)-4-oxo-3,4-dihydrophthalazin-1-yl)phenyl)-2-methylpropanoic Acid], the “Sirt6 Activity (% activity, 10 μM)” value came to 134.7 % activity. On the same count and under the same terms, to `CNS(=O)(=O)c1cccc(-c2nn(-c3ccccc3)c(=O)c3ccc(F)cc23)c1` [Example 111, 3-(7-Fluoro-4-oxo-3-phenyl-3,4-dihydrophthalazin-1-yl)-N-methylbenzenesulfonamide] belongs 126 % activity. Same read-out and setting: in the case of `COc1ccc(-c2nn(-c3ccc(F)cc3)c(=O)c3ccccc23)cc1/C=[N+](\[O-])C(C)(C)C` [Example 49, (Z)—N-tert-Butyl-1-(5-(3-(4-fluorophenyl)-4-oxo-3,4-dihydrophthalazin-1-yl)-2-methoxyphenyl)methan Imine Oxide] it was 107 % activity; in that of `Nc1cccc(-c2nn(-c3ccc(F)cc3)c(=O)c3ccccc23)c1` [Example 60, 4-(3-Aminophenyl)-2-(4-fluorophenyl) phthalazin-1(2H)-one], 176 % activity; in that of `C/[N+]([O-])=C/c1cccc(-c2nn(-c3ccc(F)cc3F)c(=O)c3ccccc23)c1` [Example 21, (Z)-1-(3-(3-(2,4-Difluorophenyl)-4-oxo-3,4-dihydrophthalazin-1-yl)phenyl)-N-methyl methanimine Oxide], 167 % activity. For `CCNS(=O)(=O)c1cccc(-c2nn(-c3ccccc3F)c(=O)c3ccccc23)c1` [Example 100, N-Ethyl-3-(3-(2-fluorophenyl)-4-oxo-3,4-dihydrophthalazin-1-yl)benzenesulfonamide], the “Sirt6 Activity (% activity, 10 μM)” value came out at 196 % activity.

In the case of `CCS(=O)(=O)Nc1cncc(-c2nn(-c3ccc(F)cc3)c(=O)c3ccccc23)c1` [Example 82, N-(5-(3-(4-Fluorophenyl)-4-oxo-3,4-dihydrophthalazin-1-yl)pyridin-3-yl)ethanesulfonamide], the “Sirt6 Activity (% activity, 10 μM)” value amounted to 111 % activity.

Turning to `C/[N+]([O-])=C\c1ccc(-c2nn(-c3ccc(F)cc3)c(=O)c3ccccc23)c(F)c1` [Example 38, (E)-1-(3-Fluoro-4-(3-(4-fluorophenyl)-4-oxo-3,4-dihydrophthalazin-1-yl)phenyl)-N-methylmethanimine Oxide], the “Sirt6 Activity (% activity, 10 μM)” value is given as 143 % activity.

Turning to `C/[N+]([O-])=C/c1ccc(-c2nn(-c3ccc(F)cc3)c(=O)c3ccccc23)s1` [Example 45, (Z)-1-(5-(3-(4-Fluorophenyl)-4-oxo-3,4-dihydrophthalazin-1-yl)thiophen-2-yl)-N-methylmethanimine Oxide], the “Sirt6 Activity (% activity, 10 μM)” value is 195 % activity. Turning to `CC(C)(c1cccc(-c2nn(-c3ccc(F)cc3F)c(=O)c3ccccc23)c1)c1nnn[nH]1` [Example 169, 4-(3-(2-(1H-Tetrazol-5-yl)propan-2-yl)phenyl)-2-(2,4-difluorophenyl)phthalazin-1(2H)-one], the “Sirt6 Activity (% activity, 10 μM)” value worked out at 211.3 % activity.

As to `C/[N+]([O-])=C/c1cccc(-c2nn(-c3ccc(F)cc3)c(=O)c3ccccc23)c1` [Example 15, (Z)-1-(3-(3-(4-Fluorophenyl)-4-oxo-3,4-dihydrophthalazin-1-yl)phenyl)-N-methylmethanimine Oxide], the “Sirt6 Activity (% activity, 10 μM)” value was found to be 231 % activity. Regarding `CC(C)/[N+]([O-])=C/c1cccc(-c2nn(-c3ccccc3F)c(=O)c3ccccc23)c1` [Example 95, (Z)-1-(3-(3-(2-Fluorophenyl)-4-oxo-3,4-dihydrophthalazin-1-yl)phenyl)-N-isopropyl Methanimine Oxide], the “Sirt6 Activity (% activity, 10 μM)” value amounted to 133 % activity.
